Reference: US20240174636A1, “NOVEL INDOLEAMINE 2,3-DIOXYGENASE INHIBITORS, PROCESSES FOR THE PREPARATION THEREOF AND PHARMACEUTICAL COMPOSITIONS COMPRISING THE SAME” (YUHAN CORPORATION, priority 2021, published 2024)

How the values were obtained:
[1] = Pharmacokinetics through oral administration in normal rats; format: in vivo; settings: 10 mg/5 mL/kg
Protocol: The pharmacokinetics of the compounds of Examples 2, 5 and 25 and BMS-986205 (control) were measured in rats, respectively. The compounds of Examples 2, 5 and 25 and BMS-986205 (control) were each suspended in 0.5% methyl cellulose containing 0.2% Tween 80 and then orally administered to rats at a dose of 10 mg/5 mL/kg. Blood samples were collected from the rat in predetermined times. The concentration of the compound in each sample was analyzed to obtain the blood concentration profiles (FIG. 1).

[2] = biological target: T1, IDO1 (Homo sapiens, UniProt P14902); experiment: IDO1 cellular activity using HEK293 cells transfected with IDO1 expression vector; format: cell-based; design: host or cells: HEK293 cells, transient transfection with Lipofectamine 2000; settings: 24 h compound incubation, read-out: Inhibitory Activity (IC50)
T1 sequence (P14902 whole entry): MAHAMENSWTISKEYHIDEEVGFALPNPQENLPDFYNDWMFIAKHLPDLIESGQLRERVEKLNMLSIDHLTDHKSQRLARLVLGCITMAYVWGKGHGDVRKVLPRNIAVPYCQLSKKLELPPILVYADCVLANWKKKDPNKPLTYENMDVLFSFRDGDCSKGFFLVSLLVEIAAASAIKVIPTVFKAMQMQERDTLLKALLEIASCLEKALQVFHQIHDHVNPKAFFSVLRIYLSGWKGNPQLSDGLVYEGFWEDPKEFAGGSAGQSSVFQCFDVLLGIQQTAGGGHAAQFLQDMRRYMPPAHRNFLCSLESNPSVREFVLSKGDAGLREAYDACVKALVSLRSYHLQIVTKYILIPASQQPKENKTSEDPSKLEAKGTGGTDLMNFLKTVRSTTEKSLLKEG
How it was run: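 HEK293 cells transiently transfected with IDO1 expression vector, expressed 24 h, then given compound in substrate-containing assay medium for 24 h. Medium TCA-treated 30 min at 50° C; product detected by absorbance at 480 nm, scaled between untreated IDO1-expressing cells (100%) and non-expressing cells (0).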

[3] = biological target: T1, IDO1; experiment: IDO1 cellular activity using Hela cells (IFN-gamma induced IDO expression, kynurenine absorbance at 480 nm); format: cell-based; settings: IDO induced with interferon gamma 50 ng/ml, 24 h compound incubation, read-out: Inhibitory Activity (IC50)
Protocol: Hela cells were seeded at a density of 20000 cells/well in 100 μl of a culture medium (EMEM supplemented with 10% FBS, penicillin 100 U/ml, and streptomycin 100 μg/ml) in a tissue culture-treated 96 well plate. The cells were cultured in a 5% carbon dioxide incubator for 24 hours, treated with recombinant human interferon gamma at the concentration of 50 ng/ml, and then cultured for 48 hours in a 5% carbon dioxide incubator to induce IDO expression.
The activities were measured using IDO1 cellular activity-measuring substrate (IDO1 cellular activity quickDetect supplements catalog: #62000-2, BPS Bioscience). Specifically, an assay medium was prepared by diluting IDO1 assay medium substrate 1 and IDO1 assay medium supplement 2 in a culture medium at a ratio of 1:100, respectively. The test compounds were diluted to the predetermined concentrations in the fresh assay medium. After removing the culture medium using a multi-pipet, 200 μl of each assay medium containing the test material was added into the respective well, followed by incubating in a 5% carbon dioxide incubator for 24 hours. The next day, 140 μl of culture medium from each well was transferred to a new 96-well plate. 10 μl of 6.1N trichloroacetic acid was added into each well, which was then cultured in a 50° C. incubator for 30 minutes. The plate was centrifuged at 2500 rpm for 10 minutes to settle any sediment. A detection reagent solution was prepared by diluting the detection reagent (component D kit, catalog: #62000-2, BPS Bioscience) 50-fold in acetic acid. 100 μl of the supernatant taken from the centrifuged plate was transferred to a new transparent 96-well plate and then 100 μl of the detection reagent solution was added thereto. After reacting at room temperature for 10 minutes, absorbance was measured at 480 nm wavelength. For analysis of the results, the absorbance (At) of the well containing Hela cells in which IDO protein expression was induced without treatment of an inhibitor was 100%; and the absorbance (Ab) of the well containing Hela cells in which IDO protein expression was not induced was 0. The % absorbance was calculated according to the following equation: % Absorbance=(A−Ab)/(At−Ab), A=absorbance of the well treated with the test compound.
The results obtained by calculating the 50% inhibitory concentration (C50) of each compound, from the absorbance values obtained as described above, are shown in Table 1 below.

C[C@H](C[C@H]1CC[C@@H](c2ccnc3ccc(F)cc32)CC1)Nc1nc2ccc(Cl)cc2o1 [Example 25, 6-chloro-N-((R)-1-((cis)-4-(6-fluoroquinolin-4-yl)cyclohexyl)propan-2-yl)benzo[d]oxazol-2-amine]
Area under the curve [1]: 16018 ng·h/mL | Time to maximum plasma concentration [1]: 2 h | Maximum plasma concentration ([1]; suspension in 0.5% methyl cellulose containing 0.2% Tween 80): 2170.3 ng/mL | IC50 [2]: 5.2 nM | IC50 [3]: 4.4 nM
